# Where a SMILES comes first, the peptide text is derived from it. [ ]: non-standard residue; d: D form. dPhe(4-Cl) = N[C@H](Cc1ccc(Cl)cc1)C(=O)O; d2Nal = N[C@H](Cc1ccc2ccccc2c1)C(=O)O; dCit = NC(=O)NCCC[C@@H](N)C(=O)O; d3Pal = N[C@H](Cc1cccnc1)C(=O)O; pGlu = O=C1CC[C@@H](C(=O)O)N1
# Tests used:
# bfGnRHR-2 = experiment: Inhibition of GnRH-2-induced IP production, GH3 cells expressing bfGnRHR-2; format: cell-based, bullfrog; conditions: log of IC50 (negative values); half-maximal inhibition of IP production induced by GnRH-2 (1 nM, 10 nM elsewhere in the source)
# Method: (§1) GH3 cell lines were obtained from the Cell Line Bank at the Cancer Research Center, Seoul National University College of Medicine, located in Seoul, Republic of Korea. The GH3 cell lines were infected with retroviruses comprising genes encoding bfGnRHR-1, bfGnRHR-2, and bfGnRHR-3 which are bullfrog GnRH receptors, and rat GnRHR, and cell lines expressing each of these receptors were obtained. The GH3 cells expressing bfGnRHR-1, bfGnRHR-2, bfGnRHR-3, and rat GnRHR were cultured on 12-well plates. After 24 hours, the cells were cultured again for 24 hours in a media containing no inositol, to which H^3-myoinositol was added. The resultant cells were washed with buffer A (140 mM NaCl, 20 mM HEPES, 4 mM KCl, 8 mM D-Glucose, 1 mM MgCl2, 1 mM CaCl2, 1 mg/ml BSA) and then cultured in buffer A containing 10 mM LiCl at 37°C. for 30 minutes. Thereafter, they were treated with GnRH having a suitable concentration, cultured at 37° C. for another 30 minutes, and then the media was eliminated. The cells were treated with 10 mM of ice-cold formic acid to terminate the reaction, and the cell extracts were mixed with Dowex anionic exchange resins. These resins were washed with distilled water, IP was extracted with 1 M ammonium formate/0.1 M formic acid, and cpm (count per minute) was determined.
# Primate GnRH-2 receptor [1] = experiment: Inhibition of GnRH-2-induced c-fos-luc luciferase activity, cells expressing Primate GnRH-2 receptor; format: cell-based, Primates; conditions: for effect on luciferase activity induced by GnRH-2: GnRH-2 and antagonist treated at the same time
# Method: Complimentary DNA (cDNA) for a Primate GnRH-2 receptor was obtained from a CV-1 cell genome. […] Plasmids having Primate GnRH-2 receptors where transfected into CV-1 cells. To assay the activity of the receptor, c-fos-luc where a luciferase gene is fused with a c-fos promoter was co-transfected as a probe gene. After 48 hours from transfection, the cells were treated with GnRH-2 agonists and then the activity of luciferase was assayed (Seong et al., Endocrinology vol 144 2003, 454-466). In the same manner as in 2-3 above, Primate GnRH-2 receptors were co-transfected along with c-fos-luc reporter genes, and after 48 hours, GnRH-2 and GnRH-2 antagonists were treated thereinto at the same time and then the effect of GnRH-2 antagonists was observed. […] Log IC50 value by antagonists is an average value of experiments that were conducted independently three times. ND stands for “not detected” which means that there are no inhibitory functions.
# bfGnRHR-3 [2] = experiment: Inhibition of GnRH-2-induced IP production, GH3 cells expressing bfGnRHR-3; format: cell-based, bullfrog; conditions: log of IC50 (negative values); half-maximal inhibition of IP production induced by GnRH-2 (1 nM, 10 nM elsewhere in the source)
# Method: as §1
# bfGnRHR-3 [3] = experiment: Ligand-receptor binding assay, I125-GnRH-2 competition, membranes of GH3 cells expressing bfGnRHR-3; parameters: species or system bullfrog; conditions: log of IC50 (negative values); competition with I125-GnRH-2, 4° C., 16 hours
# Method: To determine the binding affinity between GnRH and GnRH receptors, GnRH-2 was radiolabeled with I^125. The GH3 cells expressing bfGnRHR-1, bfGnRHR-2, bfGnRHR-3, and rat GnRHR constructed in Example 2-3 above were cultured on 100-mm dishes. After 48 hours, the cells were homogenized to obtain cellular membranes, which were then dissolved in binding buffer (40 mM Tris, pH 7.4, 2 mM MgCl2). 20 μg of membrane proteins were reacted with I^125-GnRH-2 at 4° C. for 16 hours. […] After the reaction was completed, 1^125-GnRH-2 bound to the receptors was filtered using a Brandel harvester, and cpm was measured using a γ-counter.
# The GH3 cells expressing bfGnRHR-3 obtained from Example 6-1 above were treated with l^125GnRH-2 and GnRH-2 agonists and antagonists at various concentrations to determine the binding affinity of GnRH-2 agonists and antagonists toward the receptors.
# Primate GnRH-2 receptor [4] = experiment: c-fos-luc luciferase activation by agonists, CV-1 cells expressing Primate GnRH-2 receptor; format: cell-based, Primates; conditions: for Log EC50: log of EC50 (negative values), luciferase activation, average of three independent experiments
# Method: Complimentary DNA (cDNA) for a Primate GnRH-2 receptor was obtained from a CV-1 cell genome. […] Plasmids having Primate GnRH-2 receptors where transfected into CV-1 cells. To assay the activity of the receptor, c-fos-luc where a luciferase gene is fused with a c-fos promoter was co-transfected as a probe gene. After 48 hours from transfection, the cells were treated with GnRH-2 agonists and then the activity of luciferase was assayed (Seong et al., Endocrinology vol 144 2003, 454-466). […] Of the GnRH-2 receptors, [[…]]GnRH-2 performed excellently, showing effects about 3 times that of a wild-type ligand, GnRH-2. […] When analogs where the 5th, 7th, and 8th amino acids of [[…]]GnRH-2 are substituted were used, it was observed that their effects were weaker than [[…]]GnRH-2, and therefore it can be seen that it is important to maintain His, Trp, and Tyr that are found at the 5th, 7th, and 8th positions of GnRH-2 as they are (FIG. 3b). Log EC50 values and Emax values of GnRH-2 agonists are average values of experiments that were conducted independently three times. Ratio^a represents the ratio of EC50 values of other GnRH analogs based on EC50 values of GnRH-2.
molecule,measurement,setting,value
"CC(=O)N[C@H](Cc1ccc2ccccc2c1)C(=O)N[C@H](Cc1ccc(Cl)cc1)C(=O)N[C@H](Cc1cccnc1)C(=O)N[C@@H](CO)C(=O)N[C@@H](Cc1ccc(O)cc1)C(=O)N[C@H](CCCNC(N)=O)C(=O)N[C@@H](CC(C)C)C(=O)N[C@@H](CCCNC(=N)N)C(=O)N1CCC[C@H]1C(=O)N[C@H](C)C(N)=O [Cetrorelix, Ac-D-2Nal-(4Cl)-D-Phe-D-3Pal-Ser-Tyr-D-Cit-Leu-Arg-Pro-D-Ala-NH2, reference compound] (Ac-[d2Nal][dPhe(4-Cl)][d3Pal]SY[dCit]LRP[dA]-NH2)",Log IC50,bfGnRHR-2,−6.43 ± 0.11
same,effect on luciferase activity induced by GnRH-2,Primate GnRH-2 receptor [1],no effect
same,Log IC50,bfGnRHR-3 [2],−6.28 ± 0.13
same,Binding affinity (log IC50 value),bfGnRHR-3 [3],−7.11 ± 0.08
"CC(=O)N[C@H](Cc1ccc2ccccc2c1)C(=O)N[C@H](Cc1ccc(Cl)cc1)C(=O)N[C@H](Cc1cccnc1)C(=O)N[C@@H](CO)C(=O)N[C@@H](Cc1c[nH]cn1)C(=O)N[C@H](CCCNC(N)=O)C(=O)N[C@@H](Cc1c[nH]c2ccccc12)C(=O)N[C@@H](Cc1ccc(O)cc1)C(=O)N1CCC[C@H]1C(=O)N[C@H](C)C(N)=O [Trptorelix-2, Ac-D2Nal-(4Cl)D-Phe-D-3Pal-Ser-His-DCit-Trp-Tyr-Pro-DAla-NH2] (Ac-[d2Nal][dPhe(4-Cl)][d3Pal]SH[dCit]WYP[dA]-NH2)",effect on luciferase activity induced by GnRH-2,Primate GnRH-2 receptor [1],reduced in a concentration-dependent manner
same,Log IC50,"Primate GnRH-2 receptor [1]; log of IC50 (negative values), reporter c-fos-luc, GnRH-2-induced luciferase, average of three experiments, ND = not detected, no inhibitory functions",−6.19 ± 0.12
Ac-D2Nal-(4Cl)D-Phe-D-3Pal-Ser-Tyr-DCit-Trp-Leu-Pro-DAla-NH2 (Ac-[d2Nal][dPhe(4-Cl)][d3Pal]SY[dCit]WLP[dA]-NH2; SMILES CC(=O)N[C@H](Cc1ccc2ccccc2c1)C(=O)N[C@H](Cc1ccc(Cl)cc1)C(=O)N[C@H](Cc1cccnc1)C(=O)N[C@@H](CO)C(=O)N[C@@H](Cc1ccc(O)cc1)C(=O)N[C@H](CCCNC(N)=O)C(=O)N[C@@H](Cc1c[nH]c2ccccc12)C(=O)N[C@@H](CC(C)C)C(=O)N1CCC[C@H]1C(=O)N[C@H](C)C(N)=O) [Trptorelix-3],effect on luciferase activity induced by GnRH-2,Primate GnRH-2 receptor [1],no effect
[D-Ala^6]GnRH-1: the agonist of GnRH-1,effect / sensitivity in luciferase activation,Primate GnRH-2 receptor [4]; compared with GnRH-2 or [D-Ala^6]GnRH-2,very low sensitivity as compared with GnRH-2
same,Log EC50,Primate GnRH-2 receptor [4],−6.38 ± 0.10
p-Glu-His-Trp-Ser-His-D-Lys-Trp-Tyr-Pro-Gly-NH2 ([pGlu]HWSH[dK]WYPG-NH2; SMILES NCCCC[C@@H](NC(=O)[C@H](Cc1c[nH]cn1)NC(=O)[C@H](CO)NC(=O)[C@H](Cc1c[nH]c2ccccc12)NC(=O)[C@H](Cc1c[nH]cn1)NC(=O)[C@@H]1CCC(=O)N1)C(=O)N[C@@H](Cc1c[nH]c2ccccc12)C(=O)N[C@@H](Cc1ccc(O)cc1)C(=O)N1CCC[C@H]1C(=O)NCC(N)=O) [[D-Lys^6]GnRH-2],Log EC50,Primate GnRH-2 receptor [4],−8.57 ± 0.11
"pGlu-His-Trp-Ser-His-D-Ala-Leu-Tyr-Pro-Gly-NH2 ([pGlu]HWSH[dA]LYPG-NH2; SMILES CC(C)C[C@H](NC(=O)[C@@H](C)NC(=O)[C@H](Cc1c[nH]cn1)NC(=O)[C@H](CO)NC(=O)[C@H](Cc1c[nH]c2ccccc12)NC(=O)[C@H](Cc1c[nH]cn1)NC(=O)[C@@H]1CCC(=O)N1)C(=O)N[C@@H](Cc1ccc(O)cc1)C(=O)N1CCC[C@H]1C(=O)NCC(N)=O) [[D-Ala^6, Leu^7]GnRH-2]",Log EC50,Primate GnRH-2 receptor [4],−7.95 ± 0.10
"pGlu-His-Trp-Ser-His-D-Ala-Tyr-Trp-Pro-Gly-NH2 ([pGlu]HWSH[dA]YWPG-NH2; SMILES C[C@@H](NC(=O)[C@H](Cc1c[nH]cn1)NC(=O)[C@H](CO)NC(=O)[C@H](Cc1c[nH]c2ccccc12)NC(=O)[C@H](Cc1c[nH]cn1)NC(=O)[C@@H]1CCC(=O)N1)C(=O)N[C@@H](Cc1ccc(O)cc1)C(=O)N[C@@H](Cc1c[nH]c2ccccc12)C(=O)N1CCC[C@H]1C(=O)NCC(N)=O) [[D-Ala^6, Tyr^7, Trp^8]GnRH-2]",Log EC50,Primate GnRH-2 receptor [4],−7.57 ± 0.13
"pGlu-His-Trp-Ser-Leu-D-Ala-Trp-Tyr-Pro-Gly-NH2 ([pGlu]HWSL[dA]WYPG-NH2; SMILES CC(C)C[C@H](NC(=O)[C@H](CO)NC(=O)[C@H](Cc1c[nH]c2ccccc12)NC(=O)[C@H](Cc1c[nH]cn1)NC(=O)[C@@H]1CCC(=O)N1)C(=O)N[C@H](C)C(=O)N[C@@H](Cc1c[nH]c2ccccc12)C(=O)N[C@@H](Cc1ccc(O)cc1)C(=O)N1CCC[C@H]1C(=O)NCC(N)=O) [[Leu^5, D-Ala^6]GnRH-2]",Log EC50,Primate GnRH-2 receptor [4],−7.35 ± 0.12
"pGlu-His-Trp-Ser-Tyr-D-Ala-Trp-Leu-Pro-Gly-NH2 ([pGlu]HWSY[dA]WLPG-NH2; SMILES CC(C)C[C@H](NC(=O)[C@H](Cc1c[nH]c2ccccc12)NC(=O)[C@@H](C)NC(=O)[C@H](Cc1ccc(O)cc1)NC(=O)[C@H](CO)NC(=O)[C@H](Cc1c[nH]c2ccccc12)NC(=O)[C@H](Cc1c[nH]cn1)NC(=O)[C@@H]1CCC(=O)N1)C(=O)N1CCC[C@H]1C(=O)NCC(N)=O) [[Tyr^5, D-Ala^6, Leu^8]GnRH-2]",Log EC50,Primate GnRH-2 receptor [4],−7.90 ± 0.24

# — patent publication US7285528B2, “Agonists and antagonists of gonadotropin-releasing hormone-2, and use thereof” (priority 2002, dated 2007)
